Experimental data as given in patent US11213535B2, “Composition containing phytic acid, magnesium and polyphenols for the treatment or prevention of renal lithiasis” (UNIVERSITAT DE LES ILLES BALEARS, priority 2014, dated 2022).

Assay: induction time of calcium oxalate crystallization in synthetic urine
Conditions: 200 mg/L calcium and 50 mg/L oxalate
Method: Thus, when there is neither magnesium nor phytate, the calcium oxalate takes 1 minute to crystallize. This time increases up to 10 minutes when […] magnesium is added and, in turn, it increases up to 44 minutes if, in addition to the 10 mg/L magnesium, 1 mg/L phytate is added.

| SMILES | induction times of crystallization t (0.5 mg/L phytate, 0 mg/L Mg) [min] | induction times of crystallization t (0.75 mg/L phytate, 0 mg/L Mg) [min] | induction times of crystallization t (1 mg/L phytate, 0 mg/L Mg) [min] | induction times of crystallization t (0 mg/L phytate, 25 mg/L Mg) [min] | induction times of crystallization t (0 mg/L phytate, 75 mg/L Mg) [min] | induction times of crystallization t (0 mg/L phytate, 100 mg/L Mg) [min] | time calcium oxalate takes to crystallize (induction time) (100 mg/L magnesium, no phytate) [min] |
| --- | --- | --- | --- | --- | --- | --- | --- |
| O=P(O)(O)O[C@H]1[C@H](OP(=O)(O)O)[C@@H](OP(=O)(O)O)[C@H](OP(=O)(O)O)[C@@H](OP(=O)(O)O)[C@H]1OP(=O)(O)O [phytate, myo-inositol-hexaphosphate] | 3 | 4 | 6.5 |  |  |  |  |
| [Mg+2] [Mg, magnesium] |  |  |  | 1.5 | 6 | 10 | 10 |
